The MIC is the lowest concentration found to suppress growth. Low readings indicate inhibition by little substance, high ones a need for much substance.

≈ marks a conversion by molar mass, not a printed value.

These results are taken from ChEMBL document CHEMBL1142591, “Scalusamides A-C, new pyrrolidine alkaloids from the marine-derived fungus Penicillium citrinum” (2005).

One assay concerns Micrococcus luteus. The assay can be described thus: Antibacterial activity against Micrococcus luteus. It counts as functional.
The test system of another assay is Cryptococcus neoformans. The assay can be described thus: Antifungal activity against Cryptococcus neoformans. The format is functional.

In the case of `C/C=C/CCCCC(=O)C(C)C(=O)N1CCC[C@@H]1CO` (some centres not stated) [SCALUSAMIDE A], the minimal inhibitory concentration (MIC) in the assay on Micrococcus luteus amounted to 33.3 µg/mL (≈ 118 µM); in the assay with Cryptococcus neoformans, 16.7 µg/mL (≈ 59.3 µM).
